Data on 1 compound can be found in publication PMC5704756, “Hydrolysis, polarity, and conformational impact of C-terminal partially fluorinated ethyl esters in peptide models” (Beilstein Journal of Organic Chemistry, 2017).

Details of series [1]: method as in doi:10.1002/ijch.201600106. The conditions noted are these: 310 K, amide rotation, value is k∙10^3, ref [69]; cited from earlier work.
Series [2] in a line: Amide rotational thermodynamics and kinetics (trans/cis isomerism) by NMR / EXSY. It is filed as physicochemical. From the text: For 1–5, we found the trans/cis ratios ≈ 5 for all five esters when measured in aqueous medium; the kinetic parameters of the amide rotation were also nearly identical (Table 2). We then noticed that the trans/cis ratios measured for the fluorine-labeled esters 3–5 in nonpolar solvents (such as benzene) were systematically higher relative to the reference compounds 1 and 2. We tested the relative increase in the trans-amide preference ΔΔG as a function of solvent (Equation 4) and found a dependence of this parameter on the dielectric constant, as would be expected from an electrostatic interaction between the polar alkoxy group and the amide moiety (Figure 4).
The amide rotational thermodynamic and kinetic measurements were performed by NMR as described in [50, 68]. The equilibrium ratio between the rotameric states was obtained from the ^1H, ^19F and ^19F{^1H} (inverse-gated decoupling) spectra at 298 K by integration. The kinetics was measured in ^1H and/or ^19F{^1H} z-cross-relaxation experiments at either 310 K (for deuterium oxide samples) or 298 K (for benzene samples). The Jαβ-coupling values were obtained by visual inspection of the α-CH resonances in the ^1H NMR spectra, and the accuracy was defined by the length of the time domain spectrum at approximately 0.3 Hz. The semi-empirical calculations were performed by using the PM6 algorithm from the MOPAC package. DFT geometry optimization of the 5 amide rotamers was performed using B88-PW91 GGA with the DZVP basis set.

A short description of series [3]: Partitioning between octan-1-ol and water (NMR detection). Type of series: physicochemical. To be noted: octan-1-ol/water; 298 K, 24 hours partitioning, NMR. The method, then: To characterize the lipophilicity, esters 1–5 were subjected to 24 hours of partitioning between octan-1-ol and water at 298 K. The resulting partition is illustrated in Figure 3. […] The lipophilicity of 2,2-difluoroethyl derivative 4 is nearly identical to that of parent ethyl ester 2, and the relative difference in the logP from the increase (5 vs 4, ΔlogP = +0.53 ± 0.13) and decrease (3 vs 4, ΔlogP = −0.45 ± 0.13) in the number of fluorine atoms are equivalent to one methyl group difference (2 vs 1, ΔlogP = +0.44 ± 0.08). The amplitude of the change is similar to that reported recently for the corresponding fluorinated ethanols. Importantly, C-terminal esterification maintains a much higher lipophilicity compared with the C-terminal amide 7 (Table 1).
To 4–5 mg analyte, octan-1-ol (1.00 mL) and deionized water (1.00 mL) were added. The mixture was shaken gently at ambient temperature (298 ± 2 K) for 24 hours. Each phase (200 μL) was sampled using identical NMR tubes, and acetonitrile-d3 (300 μL) was added to each sample. The NMR measurements were performed by ^1H or ^19F detection at 298 K using calibrated 90-degree pulses and one-scan experiments in order to ensure complete pre-relaxation. The same acquisition parameters were used for the octan-1-ol and water samples; for processing, only the zero phase was adjusted. The spectra were baseline corrected, and equivalent resonances were integrated. The ratio between the signal intensities was considered as the partitioning constant. The partitioning experiments were performed in triplicate. Subsequent addition of water and octan-1-ol was performed in forward and reverse manner, and the resulting partitioning constants were identical within experimental error.

Series [4] in a line: Hydrolytic stability of esters 1–5 in aqueous potassium phosphate buffer, monitored by 1H and 19F NMR. Type of series: physicochemical. The conditions noted are these: pH 11.0, 298 K, ester hydrolysis, pseudo-first order. From the text:
The kinetic stability of the ester linkage in the aqueous medium is of critical importance, as it further defines the time window for the reactions with the corresponding esters under the biologically relevant conditions of aqueous buffers. Hydrolysis of the C-terminal esters has been fairly well described in the literature, indicating the hydrolysis occurs via a pseudo-first order reaction in a buffered medium assuming that [HO^−] is constant (Equations 1–3): […]
Next, we determined the half-life values following the above mentioned kinetic model for esters 1–5 in aqueous medium at pH 11 and 298 K (Figure 2). […] For the subsequent fluorine atoms, the hydrolysis rate increased by a factor of 3–4 for each appended fluorine atom. […] Extrapolation to pH 8.0 gives a value of 107 ± 28 hours. (This procedure requires multiplication by 1000.) We experimentally determined the half-life of 5 at pH 8 to be 102 ± 2 hours, which agrees well with the extrapolation. The mutual consistency of the values determined with different kinetic modes (minutes at pH 11, days at pH 8) provides a good indication of their accuracy.
Aqueous potassium phosphate buffer (100 mM) at pH 11.0 or 8.0 was mixed with 1:10 (v/v) deuterium oxide to give 550 μL of 91 mM buffer. The analyte 1–5 was added from a 200 mM stock solution in deuterium oxide to give 0.5 mM analyte. The first NMR spectra were collected within 4 min following addition of the analyte. The monitoring was continued by recording ^1H and ^19F NMR spectra at regular time points until >50% hydrolysis. Ambient temperature was maintained at 298 ± 1 K. The decay of the integral intensity of the analyte was quantified by integration. Plotting the logarithm of the intensity versus time delivered the kinetic constant, which was converted to the half-life time (squared correlation coefficient > 0.90). The experiments were performed in triplicate.

[5] abbreviates: C6D6, 298 K, EXSY NMR, amide rotation, value is k∙10^3.

For orientation: logP means the decadic logarithm of the partition coefficient of the neutral form, usually between octanol and water. On to `COC(=O)C1CCCN1C(C)=O` (stereo not drawn) [compound 1, Methyl N-acetylprolinate], for which, in series [1], the “k∙10^3 cis→trans in D2O” value is given as 33 ± 2^c s^−1 and the “k∙10^3 trans→cis in D2O” value is 7.0 ± 0.5^c s^−1. Besides, the “Ktrans/cis in C6D6” value in series [2] (C6D6 (ε 2.27), 298 K, analyte 50 ± 10 mM) was 5.10 ± 0.10. Besides, in series [2] (setting [5]), the “k∙10^3 cis→trans in C6D6” value is 342 ± 10 s^−1 and the “k∙10^3 trans→cis in C6D6” value is 67 ± 2 s^−1. For the same compound, the “Ktrans/cis in CD2Cl2” value in series [2] (CD2Cl2 (ε 8.93), 298 K) amounted to 4.18±0.03. For the same compound, the “Ktrans/cis in CD3CN” value in series [2] (CD3CN, 298 K) was determined as 4.08±0.04. Also, the “Ktrans/cis in CD3OD” value in series [2] (CD3OD (ε 32.7), 298 K) is listed as 3.78±0.03. Further, the “Ktrans/cis in CDCl3” value in series [2] (CDCl3 (ε 4.81), 298 K) is 3.84±0.04. The “Ktrans/cis in D2O” value in series [2] (D2O (ε 80.1), 298 K, analyte 50 ± 10 mM, 1H/19F NMR) is 4.94 ± 0.05. The logP at 24 h in series [3] is -0.44 ± 0.05. For the same compound, the “τ½, min (aq buffer)” value in series [4] was 224 ± 20 (pH 11.0) min.
